The results in this text go back to ChEMBL document CHEMBL4007427, “Inhibition of the Aldehyde Dehydrogenase 1/2 Family by Psoralen and Coumarin Derivatives” (J Med Chem, 2017).

Some results are limits rather than exact numbers.

One data set deals with T1, Retinal dehydrogenase 2 (Homo sapiens, UniProt O94788).
T1 sequence (O94788 whole entry): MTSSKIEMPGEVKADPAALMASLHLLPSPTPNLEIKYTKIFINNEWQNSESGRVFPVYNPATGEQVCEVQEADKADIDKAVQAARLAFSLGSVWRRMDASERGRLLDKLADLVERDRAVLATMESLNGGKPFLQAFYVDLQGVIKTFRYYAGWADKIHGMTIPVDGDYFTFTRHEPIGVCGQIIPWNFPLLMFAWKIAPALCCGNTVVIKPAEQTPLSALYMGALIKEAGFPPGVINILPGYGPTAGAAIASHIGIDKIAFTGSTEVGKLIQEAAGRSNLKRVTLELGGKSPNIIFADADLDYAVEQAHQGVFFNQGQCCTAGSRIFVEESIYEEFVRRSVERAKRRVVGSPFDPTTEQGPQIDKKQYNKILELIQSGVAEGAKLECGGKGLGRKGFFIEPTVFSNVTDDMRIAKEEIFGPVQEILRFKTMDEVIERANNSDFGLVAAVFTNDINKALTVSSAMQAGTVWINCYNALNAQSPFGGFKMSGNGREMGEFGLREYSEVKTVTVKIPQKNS

Data set [1] has as its target T2, Aldehyde dehydrogenase, dimeric NADP-preferring (Homo sapiens) (UniProt P30838).
T2 sequence (whole entry): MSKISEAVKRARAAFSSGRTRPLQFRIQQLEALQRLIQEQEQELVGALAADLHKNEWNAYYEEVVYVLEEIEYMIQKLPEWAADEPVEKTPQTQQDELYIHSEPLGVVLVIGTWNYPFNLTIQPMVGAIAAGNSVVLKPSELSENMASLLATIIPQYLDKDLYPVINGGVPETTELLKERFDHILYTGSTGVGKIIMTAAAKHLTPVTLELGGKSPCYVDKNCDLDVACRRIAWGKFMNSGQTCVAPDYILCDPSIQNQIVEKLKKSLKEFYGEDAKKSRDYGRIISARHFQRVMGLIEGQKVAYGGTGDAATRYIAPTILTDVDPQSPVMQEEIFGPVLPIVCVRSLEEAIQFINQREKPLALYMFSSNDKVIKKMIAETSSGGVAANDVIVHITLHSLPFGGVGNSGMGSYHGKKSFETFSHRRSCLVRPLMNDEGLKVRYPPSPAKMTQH
As to the kind of experiment: Inhibition of full length recombinant human ALDH3A1 expressed in Escherichia coli BL21(DE3) assessed as remaining dehydrogenase activity by measuring NAD(P)H level at 10 uM preincubated for 2 mins followed by addition of propionaldehyde as substrate in presence of NAD+ by spectrophotometric method.

The target of data set [2] is T3, Retinaldehyde dehydrogenase 3 (Homo sapiens, UniProt P47895).
T3 sequence (P47895 whole entry): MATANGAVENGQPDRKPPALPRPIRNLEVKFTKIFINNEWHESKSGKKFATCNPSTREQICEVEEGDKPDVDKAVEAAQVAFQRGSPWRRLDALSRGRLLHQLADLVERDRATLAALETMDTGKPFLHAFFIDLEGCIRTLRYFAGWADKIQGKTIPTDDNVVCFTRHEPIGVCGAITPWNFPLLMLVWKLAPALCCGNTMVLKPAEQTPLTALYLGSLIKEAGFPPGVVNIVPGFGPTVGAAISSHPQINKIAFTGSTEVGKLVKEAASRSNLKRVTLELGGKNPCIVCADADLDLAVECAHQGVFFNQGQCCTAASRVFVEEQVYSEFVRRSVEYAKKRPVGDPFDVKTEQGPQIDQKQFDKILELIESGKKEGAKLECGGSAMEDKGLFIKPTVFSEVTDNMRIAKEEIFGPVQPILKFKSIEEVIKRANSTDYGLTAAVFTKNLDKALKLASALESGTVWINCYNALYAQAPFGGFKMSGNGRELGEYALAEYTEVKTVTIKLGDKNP
Description: (§1) Inhibition of full length recombinant human ALDH1A3 expressed in Escherichia coli BL21(DE3) assessed as reduction in dehydrogenase activity by measuring NAD(P)H level preincubated for 2 mins followed by addition of propionaldehyde as substrate in presence of NAD+ by spectrophotometric method

Data set [3] concerns the target T4, Aldehyde dehydrogenase 1A1 (Homo sapiens, UniProt P00352).
T4 sequence (P00352 whole entry): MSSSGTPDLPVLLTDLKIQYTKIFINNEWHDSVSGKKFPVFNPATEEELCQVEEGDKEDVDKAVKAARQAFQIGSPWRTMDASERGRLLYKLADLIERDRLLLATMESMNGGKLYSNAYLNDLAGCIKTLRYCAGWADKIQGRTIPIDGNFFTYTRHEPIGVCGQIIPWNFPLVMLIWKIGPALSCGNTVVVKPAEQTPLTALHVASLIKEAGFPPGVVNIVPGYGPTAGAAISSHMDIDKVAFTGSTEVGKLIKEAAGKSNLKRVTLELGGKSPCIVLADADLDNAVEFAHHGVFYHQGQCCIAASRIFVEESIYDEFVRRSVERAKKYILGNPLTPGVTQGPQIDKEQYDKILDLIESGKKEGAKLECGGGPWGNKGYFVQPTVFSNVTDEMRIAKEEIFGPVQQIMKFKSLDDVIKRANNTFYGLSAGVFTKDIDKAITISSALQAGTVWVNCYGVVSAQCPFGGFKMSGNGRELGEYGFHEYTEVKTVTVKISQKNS

Data set [4] has as its target T4, Aldehyde dehydrogenase 1A1. The source holds these as a separate data set.
Description: Non-competitive inhibition of full length recombinant human ALDH1A1 expressed in Escherichia coli BL21(DE3) assessed as reduction in dehydrogenase activity by measuring NAD(P)H level using varying levels propionaldehyde in presence of NAD+ by Lineweaver-Burk plot analysis
Data set [5] has as its target T5, Aldehyde dehydrogenase, mitochondrial (Homo sapiens, UniProt P05091).
T5 sequence (P05091 whole entry): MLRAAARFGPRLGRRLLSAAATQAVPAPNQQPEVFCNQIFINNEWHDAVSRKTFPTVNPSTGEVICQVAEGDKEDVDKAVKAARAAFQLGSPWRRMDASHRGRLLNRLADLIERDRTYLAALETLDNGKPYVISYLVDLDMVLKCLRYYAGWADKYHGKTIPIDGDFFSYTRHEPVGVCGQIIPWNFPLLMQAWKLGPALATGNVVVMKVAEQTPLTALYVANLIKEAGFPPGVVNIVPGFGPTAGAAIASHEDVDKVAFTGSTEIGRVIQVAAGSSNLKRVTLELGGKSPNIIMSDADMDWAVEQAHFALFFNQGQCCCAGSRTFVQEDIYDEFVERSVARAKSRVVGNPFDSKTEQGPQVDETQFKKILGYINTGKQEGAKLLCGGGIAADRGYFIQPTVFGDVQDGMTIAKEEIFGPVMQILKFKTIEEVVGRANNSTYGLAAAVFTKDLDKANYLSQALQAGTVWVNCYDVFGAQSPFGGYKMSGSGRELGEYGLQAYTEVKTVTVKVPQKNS
Description: (§2) Inhibition of full length recombinant human ALDH2 expressed in Escherichia coli assessed as reduction in dehydrogenase activity by measuring NAD(P)H level preincubated for 2 mins followed by addition of propionaldehyde as substrate in presence of NAD+ by spectrophotometric method

Data set [6] addresses T6, Aldehyde dehydrogenase, mitochondrial (Homo sapiens) (UniProt P05091).
T6 sequence (whole entry): T5 sequence (P05091 whole entry)
As to the kind of experiment: Inhibition of full length recombinant human ALDH2 expressed in Escherichia coli assessed as remaining dehydrogenase activity by measuring NAD(P)H level at 10 uM preincubated for 2 mins followed by addition of propionaldehyde as substrate in presence of NAD+ by spectrophotometric method.

The target in data set [7] is T7, Aldehyde dehydrogenase 1A1 (Homo sapiens) (UniProt P00352).
T7 sequence (whole entry): T4 sequence (P00352 whole entry)
As to the kind of experiment: Inhibition of full length recombinant human ALDH1A1 expressed in Escherichia coli BL21(DE3) assessed as remaining dehydrogenase activity by measuring NAD(P)H level at 10 uM preincubated for 2 mins followed by addition of propionaldehyde as substrate in presence of NAD+ by spectrophotometric method.

Data set [8] can be described thus: Lipophilicity, log P of the compound. The class given is physicochemical. To be noted: octanol/water.
In data set [9] the target is T8, Aldehyde dehydrogenase, dimeric NADP-preferring (Homo sapiens, UniProt P30838).
T8 sequence (P30838 whole entry): T2 sequence (whole entry)
As to the kind of experiment: Inhibition of full length recombinant human ALDH3A1 expressed in Escherichia coli BL21(DE3) assessed as reduction in dehydrogenase activity by measuring NAD(P)H level preincubated for 2 mins followed by addition of benzaldehyde as substrate in presence of NADP+ by spectrophotometric method.

The target in data set [10] is T9, Aldehyde dehydrogenase X, mitochondrial (Homo sapiens, UniProt P30837).
T9 sequence (P30837 whole entry): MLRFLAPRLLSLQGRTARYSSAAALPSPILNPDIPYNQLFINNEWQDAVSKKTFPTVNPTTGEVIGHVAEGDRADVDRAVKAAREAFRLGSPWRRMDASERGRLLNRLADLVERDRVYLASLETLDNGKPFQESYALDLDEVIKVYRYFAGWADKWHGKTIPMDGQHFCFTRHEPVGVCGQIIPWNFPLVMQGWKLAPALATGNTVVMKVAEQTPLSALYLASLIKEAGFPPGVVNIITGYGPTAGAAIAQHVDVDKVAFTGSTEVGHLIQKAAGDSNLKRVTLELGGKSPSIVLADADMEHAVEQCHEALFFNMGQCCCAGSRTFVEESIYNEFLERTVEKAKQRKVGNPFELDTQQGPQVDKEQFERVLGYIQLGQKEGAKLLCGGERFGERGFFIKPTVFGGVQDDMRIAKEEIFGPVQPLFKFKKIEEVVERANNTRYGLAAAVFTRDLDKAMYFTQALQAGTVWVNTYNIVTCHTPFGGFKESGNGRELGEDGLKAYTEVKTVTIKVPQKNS
Description: (§3) Inhibition of full length recombinant human ALDH1B1 expressed in Escherichia coli TunerDE3 assessed as reduction in dehydrogenase activity by measuring NAD(P)H level preincubated for 2 mins followed by addition of propionaldehyde as substrate in presence of NAD+ by spectrophotometric method

Data set [11] has as its target T4, Aldehyde dehydrogenase 1A1. This is another data set of the same source.
Description: (§4) Inhibition of full length recombinant human ALDH1A1 expressed in Escherichia coli BL21(DE3) assessed as reduction in dehydrogenase activity by measuring NAD(P)H level preincubated for 2 mins followed by addition of propionaldehyde as substrate in presence of NAD+ by spectrophotometric method
Data set [12] concerns the target T10, Cytosolic 10-formyltetrahydrofolate dehydrogenase (Rattus norvegicus, UniProt P28037).
T10 sequence (P28037 whole entry): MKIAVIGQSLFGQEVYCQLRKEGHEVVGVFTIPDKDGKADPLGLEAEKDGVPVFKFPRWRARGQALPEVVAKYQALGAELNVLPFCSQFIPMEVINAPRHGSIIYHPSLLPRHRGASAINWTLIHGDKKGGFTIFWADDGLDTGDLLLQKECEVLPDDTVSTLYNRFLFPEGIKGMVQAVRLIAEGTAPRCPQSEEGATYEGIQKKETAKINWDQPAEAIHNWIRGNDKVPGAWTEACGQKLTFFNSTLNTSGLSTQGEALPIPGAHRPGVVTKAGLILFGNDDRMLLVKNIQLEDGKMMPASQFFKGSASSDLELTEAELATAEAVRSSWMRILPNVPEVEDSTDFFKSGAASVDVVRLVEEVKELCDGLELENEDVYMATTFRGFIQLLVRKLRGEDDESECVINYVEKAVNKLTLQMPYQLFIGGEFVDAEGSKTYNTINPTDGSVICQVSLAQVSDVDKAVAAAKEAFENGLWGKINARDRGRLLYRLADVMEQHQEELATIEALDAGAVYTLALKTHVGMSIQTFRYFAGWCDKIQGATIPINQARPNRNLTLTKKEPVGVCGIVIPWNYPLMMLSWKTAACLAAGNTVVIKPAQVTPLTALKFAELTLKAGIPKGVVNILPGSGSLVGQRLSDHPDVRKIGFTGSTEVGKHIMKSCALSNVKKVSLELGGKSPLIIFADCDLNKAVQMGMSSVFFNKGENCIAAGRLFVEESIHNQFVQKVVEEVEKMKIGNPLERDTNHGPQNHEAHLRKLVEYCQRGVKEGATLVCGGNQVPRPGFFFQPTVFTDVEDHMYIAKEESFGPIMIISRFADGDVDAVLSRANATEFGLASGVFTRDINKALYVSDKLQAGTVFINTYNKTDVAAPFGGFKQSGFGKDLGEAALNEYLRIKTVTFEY
Put plainly: Inhibition of rat ALDH1L1 assessed as reduction in dehydrogenase activity by measuring NAD(P)H level preincubated for 2 mins followed by addition of propionaldehyde as substrate in presence of NAD+ by spectrophotometric method.

The target of data set [13] is T9, Aldehyde dehydrogenase X, mitochondrial. This is another data set of the same source.
Description: as §3
In data set [14] the target is T3, Retinaldehyde dehydrogenase 3. The source holds these as a separate data set.
Description: as §1
Data set [15] addresses T5, Aldehyde dehydrogenase, mitochondrial. As to the kind of experiment: Mixed-type non-competitive inhibition of full length recombinant human ALDH2 expressed in Escherichia coli assessed as reduction in dehydrogenase activity using propionaldehyde as substrate in presence of varying levels NAD+ by Lineweaver-Burk plot analysis.
In data set [16] the target is T2, Aldehyde dehydrogenase, dimeric NADP-preferring (Homo sapiens). Put plainly: Inhibition of full length recombinant human ALDH3A1 expressed in Escherichia coli BL21(DE3) assessed as reduction in dehydrogenase activity by measuring NAD(P)H level preincubated for 2 mins followed by addition of benzaldehyde as substrate in presence of NADP+ by spectrophotometric method relative to control.

Data set [17] addresses T5, Aldehyde dehydrogenase, mitochondrial. The source holds these as a separate data set.
Description: as §2
For data set [18], the target named is T4, Aldehyde dehydrogenase 1A1. This is another data set of the same source.
Description: as §4

Description for Retinal dehydrogenase 2: Inhibition of full length recombinant human ALDH1A2 expressed in Escherichia coli BL21(DE3) assessed as reduction in dehydrogenase activity by measuring NAD(P)H level preincubated for 2 mins followed by addition of propionaldehyde as substrate in presence of NAD+ by spectrophotometric method

As usually defined, the IC50 is the concentration that gives 50% inhibition. The Ki is the dissociation constant of the complex between target and ligand, obtained from inhibition or displacement. For orientation: logP means the decadic logarithm of the partition coefficient of the neutral form, usually between octanol and water. A high value points to higher lipophilicity. Consider `CCN(CC)c1ccc2c(C)cc(=O)oc2c1`, for which the IC50 on Retinal dehydrogenase 2 is more than 10 µM; in data set [2], “Not Active”; in [5], “Not Active”; in [9], “Not Active”; in data set [10] it was “Not Active”; in data set [11] it was 0.76 µM. The Activity in data set [1] was found to be 109%; in [6], 71.7%; in data set [7], 14.3%. Besides, the Ki in data set [3] turned out to be 0.87 µM; in data set [4] it was 1.2 µM. This compound also showed a logP in data set [8] of 3.63.
Take `O=c1c(-c2ccc(O)cc2)coc2cc(O[C@@H]3O[C@H](CO)[C@@H](O)[C@H](O)[C@H]3O)ccc12` [DAIDZIN]: the IC50 against Retinal dehydrogenase 2 was 4.5 µM; in data set [12], “Not Active”; in data set [13], 5.1 µM; in [14] it was more than 200 µM; in data set [9], “Not Active”; in data set [11] it was more than 200 µM.
For the compound `Cc1cc(=O)oc2cc(OCC#N)ccc12`, the figures for the Activity in data set [1], in [6] and in data set [7] were 20.4%, 41.3% and 35.7%, respectively. Moreover, the Ki came out at 6.9 µM in [4] and 5.6 µM in data set [15]. The compound also had a logP in data set [8] of 1.22.
For `Cc1cc(=O)oc2cc3c(cc12)CCC(=O)O3`, the Activity worked out at 53.6% in data set [1], 25.5% in data set [6] and 65.2% in [7]. Further, the Imax in [16] was 50 to 60%. The IC50 in data set [17] was 0.47 µM; in [18] it was “Not Active”; in [9] (read-out: IC50) it was 5.4 µM. This compound also showed a log partition coefficient (logP) in data set [8] of 2.11.
As to `Cc1c(Cc2ccccc2)c(=O)oc2cc(OS(C)(=O)=O)ccc12`, the IC50 against Retinal dehydrogenase 2 was 11 µM; in data set [13] it was 13 µM; in data set [5], “Not Active”; in data set [14], 10 µM; in data set [9] it was “Not Active”; in data set [11], 2.8 µM. The Activity stood at 86.9% in [1], 99.7% in [6] and 24.6% in [7]. Besides, in [8], the logP worked out at 3.44.
